Tests used:
HCT-116 (Colon Cancer) = test: SRB assay, HCT-116; type: cell-based; details: Homo sapiens, 72 h, read-out: IC50 (μM) (mean ± SD)
Procedure: (§1) Experimental method: The antineoplasmic activities in vitro of the compounds were determined by SRB assay. The detailed procedure was as follows. The cells in the logarithmic growth phase were inoculated on a 96-well microculture plate with a suitable density (100 μl/well), and allowed to attach overnight, followed by addition of the compound at different concentrations to be treated for 72 h. For each concentration, the test was carried out in triplicate wells, and included control wells containing the aqueous medium of normal saline and a blank well containing all medium without cells for zeroing. After cultured overnight, the cells were treated with the compound at different concentrations for 72 h. After the treatment, the culture medium was removed, and the cells were fixed with 10% (wt/vol) trichloroacetic acid (100 μL/well) at 4° C. for 1 h. The cells were then washed with distilled water for 5 times, and died at room temperature, followed by addition of a SRB solution (4 mg/mL, dissolved in 1% glacial acetic acid) at 100 μL/well. The cells were incubated and stained at room temperature for 15 min, then washed with 1% glacial acetic acid for 5 times to remove the uncombined SRB, and died at room temperature. 100 μL of 10 mM Tris solution was added in each well, and the Optical Density (OD) were measured at a wavelength of 560 nm on a VERSMax ELISA Reader (Molecule Devices). The growth inhibition of the compound against tumor cells was calculated according to the following equation: Growth inhibition (%)=(ODcontrol−ODtreated)/ODcontrol×100%.
(§2) IC50 (the concentration of the sample compound that is required for 50% inhibition of cell growth) was calculated by using the Logit method based on the measurement, and each test was repeated for 3 times to calculate the mean value and standard deviation.

A549 (Lung Cancer) = test: SRB assay, A549; type: cell-based; details: Homo sapiens, 72 h, read-out: IC50 (μM) (mean ± SD)
Procedure: as §1, §2

7404 (Liver Cancer) = test: SRB assay, 7404; type: cell-based; details: 72 h, read-out: IC50 (μM) (mean ± SD)
Procedure: as §1, §2

[1] = tested on: Hela uterine cervix cancer cells; test: MTT assay, Hela cells; type: cell-based; details: Homo sapiens, 72 h, 1000 cells per well
Procedure: (§3) The adhered MDA-MB-4355 cells in logarithmic growth phase, were digested by 0.05% trypsogen, counted and formulated into a cell suspension with a medium. After counted, the suspension was inoculated on a 96-well plate with 3000 cells and 100 μl medium per well. The inoculated 96-well plate was placed overnight in an incubator at 37 with 5% CO2 to allow the cells to adhere to the wall. On the next day, the administration of the drugs started. Before the administration, into some of the control wells, each was added 20 μl of the MTT solution (5 mg/ml) without removing the medium therein. After incubated for 3 h, the absorption at A550/690 was recorded as the initial cell concentration. For the drug wells, each was added into 100 μl of medium containing 2 μl of compound solution. For the control wells which use DMSO as background control, each was also added into 100 μl of medium containing 2 μl of DMSO. In addition, each experiment was carried out with adriamycin as the positive control. Subsequently, the 96-well plate was incubated in an incubator at 37 with 5% CO2 for 72 h. each compound was tested in triplicate wells (6 μl of compound solution was put into a sterilized eppendorf centrifuge tube, then 300 μl of medium was added and mixed well, and the mixture was distributed into 3 wells respectively), and at six concentrations which form a gradient. 3 days (72 h) later, 40 μl of MTT solution (5 mg/ml) was put into each well directly (without sucking off the medium therein), and the plate was incubated in the incubator for 3 h and then taken out. The liquid in each well was sucked off, and then 100 μl of DMSO was put into each well to dissolve the crystal completely with slight shake. The absorbance of the solution in each well was determined at 550/690 nm on an ELISA Reader as the cell density after treated with the compound. The growth inhibition of compound against breast cancer cells MDA-MB-435S was represented by the cell survival rate, and IC50 was determined from the profile of cell survival rate vs compound concentration. The calculating formula was as follows: cell survival rate=[(cells+compound)A550/690/(cells+compound vector DMSO)A550/690]×100%
(§4) MDA-MB-435S: human breast cancer cells; HCT116: colon cancer cells; A549: lung adenocarcinoma cells; Hela: uterine cervix cancer cells.
(§5) The tests were performed in the same manner as that of experimental example 1, except that for Hela cells, after counted, each well was seeded with 1000 cells and 100 μl of medium on a 96-well plate.

BEL-7402 (Liver Cancer) = test: SRB assay, BEL-7402; type: cell-based; details: Homo sapiens, 72 h, read-out: IC50 (μM) (mean ± SD)
Procedure: as §1, §2

HepG2 (Liver Cancer) = test: SRB assay, HepG2; type: cell-based; details: Homo sapiens, 72 h, read-out: IC50 (μM) (mean ± SD)
Procedure: as §1, §2

[2] = tested on: colon cancer cells HCT116; test: MTT assay, HCT116 cells; type: cell-based; details: Homo sapiens, HCT-116, 72 h
Procedure: as §3, §4, §5

[3] = tested on: MDA-MB-435 (Breast Cancer); test: SRB assay, MDA-MB-435; type: cell-based; details: Homo sapiens, 72 h, read-out: IC50 (μM) (mean ± SD)
Procedure: as §1, §2

HMEC (Others) = test: SRB assay, HMEC; type: cell-based; details: Homo sapiens, 72 h, read-out: IC50 (μM) (mean ± SD)
Procedure: as §1, §2

HO-8910 (Ovarian Cancer) = test: SRB assay, HO-8910; type: cell-based; details: 72 h, read-out: IC50 (μM) (mean ± SD)
Procedure: as §1, §2

[4] = tested on: lung adenocarcinoma cells A549; test: MTT assay, A549 cells; type: cell-based; details: Homo sapiens, 72 h
Procedure: as §3, §4, §5

Zip177 (Liver Cancer) = test: SRB assay, Zip177; type: cell-based; details: 72 h, read-out: IC50 (μM) (mean ± SD)
Procedure: as §1, §2

[5] = tested on: human breast cancer cells MDA-MB-435 transplanted on nude mice; test: Antineoplasmic activity in vivo, MDA-MB-435 transplanted tumor on nude mice; details: for Body Weight(g) Ultimate / TV (mm^3) d21 / RTV: q3w × 3w; for Body Weight(g) Ultimate: i.v. 4 times then peritoneally 5 times; for RTV: d21
Procedure: Dosage: among 3 groups, the dosages of L538 were set at 5, 10 and 20 mg/kg as the high, middle and low dosages, respectively, administrating intravenously 3 times a week; while MMC was administrated intravenously at the first day whit a dosage of 5 mg/kg.
Animals: BALB/CA nude mice, male, 40-45 days old, body weight: 18±1 g, provided by Shanghai Institute of Materia Medica, Chinese Academy of Sciences. […] Animal number in each group: 7 in negative control group, and 4 in administration group.
The amount of inoculated cells was 5×10^6. After the transplanted tumor was formed by inoculation, it was used after passed for 3 generations in nude mice.
Experimental procedure: tumor tissue in productive phase was cut into nubs of about 1.5 mm^3. Under sterile conditions, the nubs were inoculated subcutaneously in right axillary fossa of the nude mice. The diameters of the transplanted tumors on nude mice were measured by a vernier caliper. When the tumors grew up to 100-200 mm^3, the animals were divided randomly into groups. Mice in experimental groups were administered intravenously every other day. […] The total administration duration was 3 weeks. For the positive control, MMC, Mice were administered intravenously once at the first day of a week, and the total administration duration was 3 weeks. Mice in control groups were administrated physiologic saline in equivalent amount. The diameter of the tumor and weight of mice were measured twice a week. The equation for calculating the TV (tumor volume) was as follows: TV=½×a×b^2, • wherein, a is length and b is width. RTV (relative tumor volume) was calculated based on the measured results, and the equation thereof was as follows: RTV=Vt/V0 • wherein, V0 is the tumor volume measured when the mice were grouped (i.e. d0), and Vt is the tumor volume at each measurement. The evaluation index for the antitumor activity was the relative tumor proliferation rateT/C (%).
The calculation equation was as follows: T/C(%)=(TRTV/CRTV)×100, • wherein, TRTV is the RTV of therapeutic Group and CRTV is RTV of negative control group.

SMMC-7721 (Liver Cancer) = test: SRB assay, SMMC-7721; type: cell-based; details: Homo sapiens, 72 h, read-out: IC50 (μM) (mean ± SD)
Procedure: as §1, §2

`CO[C@@H](C(=O)N[C@@H](C)C(=O)NCCOC(=O)C12CC3CC(CC(C3)C1)C2)[C@H](O)[C@@H](O)[C@H](O)/C=C/C(C)(C)C` [Compound L538] was tested, and the IC50 (HCT-116 (Colon Cancer)) was 0.24 ± 0.1 µM, the IC50 (A549 (Lung Cancer)) was 0.02 ± 0.004 µM and the IC50 (7404 (Liver Cancer)) was > 20 µM. The IC50 [1] was 91 ± 19 nM, the IC50 (BEL-7402 (Liver Cancer)) was 0.37 ± 0.27 µM and the IC50 (HepG2 (Liver Cancer)) was 0.45 ± 0.07 µM. For the same compound, the IC50 [2] was 98 ± 9 nM, the IC50 [3] was 0.09 ± 0.01 µM and the IC50 (HMEC (Others)) was 0.17 ± 0.06 µM. For the same compound, the IC50 (HO-8910 (Ovarian Cancer)) was > 20 µM, the IC50 [4] was 133 ± 25 nM and the IC50 (Zip177 (Liver Cancer)) was 0.37 ± 0.06 µM. For the same compound, the “growth inhibition of transplanted tumor, conclusion” value ([5]; 5, 10 and 20 mg/kg, 3 weeks) was “can significantly depress the growth”, the “T/C (%)” value ([5]; L538 5 mg/kg, q3w × 3w (low dosage group), P >0.05) was 64.7% and the “Body Weight(g) Ultimate” value ([5]; L538 5 mg/kg, initial 19.3 g) was 23.5 g. For the same compound, the “TV (mm^3) d21” value ([5]; L538 5 mg/kg, d0 131 ± 59) was 1144 ± 353 mm^3, the RTV ([5]; L538 5 mg/kg) was 9.6 ± 3.5 and the “T/C (%)” value ([5]; L538 10 mg/kg, q3w × 3w (middle dosage group), P <0.05) was 47.1%. For the same compound, the “Body Weight(g) Ultimate” value ([5]; L538 10 mg/kg, initial 17.7 g) was 21.7 g, the “TV (mm^3) d21” value ([5]; L538 10 mg/kg, d0 133 ± 49) was 951 ± 619 mm^3 and the RTV ([5]; L538 10 mg/kg) was 6.9 ± 3.6. The “T/C (%)” value ([5]; L538 20 mg/kg, q3w × 3w (high dosage group), P <0.05) was 36.0%, the “Body Weight(g) Ultimate” value ([5]; L538 20 mg/kg, initial 18.5 g) was 19.7 g and the “TV (mm^3) d21” value ([5]; L538 20 mg/kg, d0 135 ± 37) was 735 ± 501 mm^3. For the same compound, the RTV ([5]; L538 20 mg/kg) was 5.3 ± 3.1, the “tail stimulus on intravenous administration” value ([5]; after administered intravenously 4 times, every other day) was “too strong tail stimulus to be administered intravenously” and the “increase in body weight” value ([5]; high dosage group) was “did not have an significant increase in body weight”. For the same compound, the “growth inhibition of transplanted tumor” value ([5]; low dosage group) was “did not be depressed obviously” and the IC50 (SMMC-7721 (Liver Cancer)) was 0.58 ± 0.04 µM.

From patent US8470763B2, “Alpha-amino-N-substituted amides, pharmaceutical composition containing them and uses thereof” (Shanghai Institute of Materia Medica Chinese Academy of …, priority 2007, dated 2013)
